Tests used:
HIT-T15 cells [1] = assay: Glucose-responsive insulin secretion in HIT-T15 cells (ELISA); assay type: cell-based; conditions: 50 μg/ml reduced coenzyme A; 20 mM glucose load; supernatant collected at intervals of 30 minutes; FIG. 3
Experimental: HIT-T15 cells were seeded in the wells of a 96-well plate at a density of 50,000 cells/100 μl medium/well. An RPMI 1640 medium (GIBCO) containing 1% fetal bovine serum and 6 mM glucose was used at this time. Twenty-four hours later, the medium of each well was replaced with an RPMI 1640 medium (containing 1% fetal bovine serum and 6 mM glucose) in which reduced coenzyme A was added to a final concentration of 50 μg/ml. Another 24 hours later, the medium of each well was replaced with an RPMI 1640 medium (containing 10% fetal bovine serum and 6 mM glucose) in which reduced coenzyme A was added to a final concentration of 50 μg/ml. Yet another 24 hours later, the wells were washed with Krebs-Ringer buffer containing 10 mM of HEPES (KRB-HEPES), and further added with 100 μl of KRB-HEPES, followed by culturing for one hour. Next, after removal of the KRB-HEPES, the wells were washed with the same buffer. To the wells was added 100 μl of KRB-HEPES containing 20 mM of glucose, and the supernatant liquid was collected at intervals of 30 minutes for storing frozen. At a later date, the insulin amount in the supernatant liquid samples was assayed using ELISA (Lebis).

HIT-T15 cells [2] = assay: Effects on ATP production (intracellular ATP level, ATPLite) in HIT-T15 cells; assay type: cell-based; conditions: 24 h + 24 h cultivation
Experimental: Ham'F12 medium (GIBCO) containing 200 units of penicillin (GIBCO), […] streptomycin (GIBCO), and 10% fetal bovine serum (GIBCO) is normally used as a growth medium for cultivating HIT-T15 cells.
A growth medium containing a fetal bovine serum at a concentration of 0.5% was placed in each well of a 96-well microplate, and HIT-T15 cells were seeded in the wells at a density of 1×10^4 cells/well. Next day, the growth medium of each well was replaced with a growth medium containing 0.5% fetal bovine serum, in which reduced coenzyme A was further added to a final concentration of 6.25, 12.5, 25, 50 or 100 μg/ml. Twenty-four hours later, the medium of each well was removed and replaced with a growth medium (containing 10% fetal bovine serum) in which reduced coenzyme A was added at the same concentration as mentioned above, and cultivation was continued for another 24 hours. After washing three times with PBS, the intracellular ATP level was measured using ATPLite (PerkinElmer).
A growth medium containing a fetal bovine serum at a concentration of 0.5% was placed in each well of a 96-well microplate, and the cells were seeded in the wells at a density of 1×10^4 cells/well. Next day, the growth medium of each well was replaced with a growth medium containing 0.5% fetal bovine serum, in which reduced coenzyme A or three kinds of coenzyme A precursors (pantothenic aid, pantethine, cystein) or oxidized coenzyme A was added. The coenzyme A precursors and the oxidized coenzyme A were added at the same molar concentrations as that of the reduced coenzyme A. Twenty-four hours later, the medium of each well was removed and replaced with a growth medium (containing 10% fetal bovine serum) in which reduced coenzyme A, the coenzyme A precursor, or oxidized coenzyme A was added at the same concentration as mentioned above, and cultivation was continued for another 24 hours. After washing three times with PBS, the intracellular ATP level was measured using ATPLite (PerkinElmer).

[3] = same molar concentrations, FIG. 2

For `CC(C)(COP(=O)(O)OP(=O)(O)OC[C@H]1O[C@@H](n2cnc3c(N)ncnc32)[C@H](O)[C@@H]1OP(=O)(O)O)[C@@H](O)C(=O)NCCC(=O)NCCS` [reduced coenzyme A], the “glucose-responsive insulin secretion in HIT-T15 cells” value (HIT-T15 cells [1]) was “significantly promoted”, the “intracellular ATP level in HIT-T15 cells” value (HIT-T15 cells [2]; reduced coenzyme A added at 6.25, 12.5, 25, 50 or 100 μg/ml, FIG. 1) was “significantly increased” and the “ATP production in comparison to addition of oxidized coenzyme A” value (HIT-T15 cells [2]; [3]) was “promoted ATP production significantly in comparison to addition of oxidized coenzyme A”. For the same compound, the “ATP production in comparison to additions of the precursors (pantothenic acid, pantethine, cystein) and a mixture of the three precursors” value (HIT-T15 cells [2]; [3]) was “promoted ATP production significantly in comparison to additions of the precursors”.

Source: patent US20100028319A1, “COMPOSITION FOR PREVENTION OR TREATMENT OF DIABETES” (KANEKA CORPORATION, priority 2007, published 2010)
